Measured values published in the supplement of paper PMC10307832.

Tests used:
Assay in all cases: relative viability (nuclei count vs DMSO), 5 days (fraction); higher = more cells survive
HCC-827 = system: HCC-827
In short: (§1)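 Lung cancer cell lines, seeded in 1536-well plates, were treated the following day by pin tool with a single drug or with five library-drug doses (not always all listed) in √10 steps on top of a fixed anchor-drug dose. Cells were fixed and nuclei stained in one step after 5 days, and nuclei were counted. Relative viability is the nuclei count for treated wells divided by that for vehicle wells, reported as medians of duplicate plates.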

EKVX = system: EKVX
In short: as §1

NCI-H2405 = system: NCI-H2405
In short: as §1

NCI-H1355 = system: NCI-H1355
In short: as §1

NCI-H1792 = system: NCI-H1792
In short: as §1

NCI-H838 = system: NCI-H838
In short: as §1

LC-2-ad = system: LC-2-ad
In short: as §1

HARA = system: HARA
In short: as §1

NCI-H661 = system: NCI-H661
In short: as §1

SW 1573 = system: SW 1573
In short: as §1

COR-L23 = system: COR-L23
In short: as §1

UMC-11 = system: UMC-11
In short: as §1

EMC-BAC-2 = system: EMC-BAC-2
In short: as §1

HCC-15 = system: HCC-15
In short: as §1

NCI-H1755 = system: NCI-H1755
In short: as §1

NCI-H522 = system: NCI-H522
In short: as §1

NCI-H23 = system: NCI-H23
In short: as §1

H3255 = system: H3255
In short: as §1

NCI-H2126 = system: NCI-H2126
In short: as §1

NCI-H520 = system: NCI-H520
In short: as §1

NCI-H1915 = system: NCI-H1915
In short: as §1

SW 900 = system: SW 900
In short: as §1

RERF-LC-KJ = system: RERF-LC-KJ
In short: as §1

LCLC-97TM1 = system: LCLC-97TM1
In short: as §1

NCI-H3122 = system: NCI-H3122
In short: as §1

Nc1cccc2c1CN(C1CCC(=O)NC1=O)C2=O (centres undefined) [Lenalidomide] + N=C(N)NC(=N)NCCc1ccccc1 [Phenformin] (partner 250 µM)
relative viability (HCC-827; first compound 0.253 µM): 0.408
relative viability (HCC-827; first compound 0.8 µM): 0.425
relative viability (HCC-827; first compound 2.53 µM): 0.432
relative viability (HCC-827; first compound 8 µM): 0.437
relative viability (EKVX; first compound 0.253 µM): 0.23
relative viability (EKVX; first compound 0.8 µM): 0.211
relative viability (EKVX; first compound 2.53 µM): 0.241
relative viability (EKVX; first compound 8 µM): 0.196
relative viability (NCI-H2405; first compound 0.253 µM): 0.382
relative viability (NCI-H2405; first compound 0.8 µM): 0.416
relative viability (NCI-H2405; first compound 2.53 µM): 0.416
relative viability (NCI-H2405; first compound 8 µM): 0.351
relative viability (NCI-H1355; first compound 0.253 µM): 0.485
relative viability (NCI-H1355; first compound 2.53 µM): 0.462
relative viability (NCI-H1355; first compound 8 µM): 0.399
relative viability (NCI-H1792; first compound 0.253 µM): 0.369
relative viability (NCI-H1792; first compound 2.53 µM): 0.574
relative viability (NCI-H1792; first compound 8 µM): 0.189
relative viability (NCI-H838; first compound 0.253 µM): 0.545
relative viability (NCI-H838; first compound 0.8 µM): 0.541
relative viability (NCI-H838; first compound 2.53 µM): 0.689
relative viability (NCI-H838; first compound 8 µM): 0.468
relative viability (LC-2-ad; first compound 0.253 µM): 0.567
relative viability (LC-2-ad; first compound 2.53 µM): 0.64
relative viability (LC-2-ad; first compound 8 µM): 0.585
relative viability (HARA; first compound 0.253 µM): 0.414
relative viability (HARA; first compound 2.53 µM): 0.595
relative viability (HARA; first compound 8 µM): 0.417
relative viability (NCI-H661; first compound 0.253 µM): 0.276
relative viability (NCI-H661; first compound 0.8 µM): 0.314
relative viability (NCI-H661; first compound 2.53 µM): 0.296
relative viability (NCI-H661; first compound 8 µM): 0.249
relative viability (SW 1573; first compound 0.253 µM): 0.432
relative viability (SW 1573; first compound 0.8 µM): 0.43
relative viability (SW 1573; first compound 2.53 µM): 0.347
relative viability (SW 1573; first compound 8 µM): 0.345
relative viability (COR-L23; first compound 0.253 µM): 0.412
relative viability (COR-L23; first compound 0.8 µM): 0.412
relative viability (COR-L23; first compound 2.53 µM): 0.508
relative viability (COR-L23; first compound 8 µM): 0.45
relative viability (UMC-11; first compound 0.253 µM): 0.317
relative viability (UMC-11; first compound 0.8 µM): 0.328
relative viability (UMC-11; first compound 2.53 µM): 0.389
relative viability (UMC-11; first compound 8 µM): 0.339
relative viability (EMC-BAC-2; first compound 0.253 µM): 0.527
relative viability (EMC-BAC-2; first compound 0.8 µM): 0.525
relative viability (EMC-BAC-2; first compound 2.53 µM): 0.598
relative viability (EMC-BAC-2; first compound 8 µM): 0.459
relative viability (HCC-15; first compound 0.253 µM): 0.474
relative viability (HCC-15; first compound 0.8 µM): 0.489
relative viability (HCC-15; first compound 2.53 µM): 0.53
relative viability (HCC-15; first compound 8 µM): 0.482
relative viability (NCI-H1755; first compound 0.253 µM): 0.627
relative viability (NCI-H1755; first compound 0.8 µM): 0.615
relative viability (NCI-H1755; first compound 2.53 µM): 0.682
relative viability (NCI-H1755; first compound 8 µM): 0.536
relative viability (NCI-H522; first compound 0.253 µM): 0.645
relative viability (NCI-H522; first compound 2.53 µM): 0.643
relative viability (NCI-H522; first compound 8 µM): 0.573
relative viability (NCI-H23; first compound 0.253 µM): 0.733
relative viability (NCI-H23; first compound 0.8 µM): 0.695
relative viability (NCI-H23; first compound 2.53 µM): 0.889
relative viability (NCI-H23; first compound 8 µM): 0.729
relative viability (H3255; first compound 0.253 µM): 0.331
relative viability (H3255; first compound 0.8 µM): 0.38
relative viability (H3255; first compound 2.53 µM): 0.329
relative viability (H3255; first compound 8 µM): 0.386
relative viability (NCI-H2126; first compound 0.253 µM): 0.552
relative viability (NCI-H2126; first compound 0.8 µM): 0.517
relative viability (NCI-H2126; first compound 2.53 µM): 0.531
relative viability (NCI-H2126; first compound 8 µM): 0.458
relative viability (NCI-H520; first compound 0.253 µM): 0.579
relative viability (NCI-H520; first compound 0.8 µM): 0.481
relative viability (NCI-H520; first compound 2.53 µM): 0.658
relative viability (NCI-H520; first compound 8 µM): 0.257
relative viability (NCI-H1915; first compound 0.253 µM): 0.358
relative viability (NCI-H1915; first compound 0.8 µM): 0.373
relative viability (NCI-H1915; first compound 2.53 µM): 0.401
relative viability (NCI-H1915; first compound 8 µM): 0.406
relative viability (SW 900; first compound 0.253 µM): 0.583
relative viability (SW 900; first compound 2.53 µM): 0.747
relative viability (SW 900; first compound 8 µM): 0.688
relative viability (RERF-LC-KJ; first compound 0.253 µM): 0.403
relative viability (RERF-LC-KJ; first compound 0.8 µM): 0.463
relative viability (RERF-LC-KJ; first compound 2.53 µM): 0.431
relative viability (RERF-LC-KJ; first compound 8 µM): 0.441
relative viability (LCLC-97TM1; first compound 0.253 µM): 0.378
relative viability (LCLC-97TM1; first compound 0.8 µM): 0.409
relative viability (LCLC-97TM1; first compound 2.53 µM): 0.485
relative viability (LCLC-97TM1; first compound 8 µM): 0.365
relative viability (NCI-H3122; first compound 0.253 µM): 0.379
relative viability (NCI-H3122; first compound 0.8 µM): 0.387
relative viability (NCI-H3122; first compound 2.53 µM): 0.395
relative viability (NCI-H3122; first compound 8 µM): 0.457
